Test results published in patent US11000710B2, “Composition and method for the generation of chlorine dioxide from the oxidative consumption of biomolecules” (priority 2009, dated 2021).

Assay: Level of HClO2 and ClO2^• producible from ClO2^− as a function of pH
Type: physicochemical

Row | Compound | total ClO2^• producible, maximum percentage of total oxyhalogen oxidant (pH 4.50) | total ClO2^• producible, maximum percentage of total oxyhalogen oxidant (pH 7.00) | level of HClO2 generated, of total available oxyhalogen oxidant (pH 4.50) | level of HClO2 generated, of total available oxyhalogen oxidant (pH 7.00)
1 | [O][Cl+][O-] [ClO2^•, chlorine dioxide] | ≤ 0.32% | ≤ 0.0010% | – | –
2 | [O-][Cl+]O [HClO2] | – | – | 0.64% | 0.0020%
